Our source for the inhibition and IC50 values is patent publication US20250340543A1, “GPR84 ANTAGONISTS AND USES THEREOF” (Liminal BioSciences Limited, priority 2021, published 2025).

Structures are written as SMILES.

This test addresses GPR84 (Homo sapiens (Human), UniProt Q9NQS5). Kind of test: Gai biosensor BRET assay (GPR84-mediated activation of Gai, antagonist mode against agonist ZQ-16). The format is cell-based. The conditions noted are these: for inhibition at 10 µM: compound tested at 10 μM (concentration code D); for IC50: HEK293 cells, 200 nmol/L GPR84 agonist ZQ-16, read-out: hGPR84 IC50; for inhibition at 2 µM: compound tested at 2 μM (concentration code A). In a few lines: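 Transiently transfected HEK293 cells expressing GPR84, Gαi2-Rluc8, GFP10-Gγ2 and Gβ1, in Tyrode's buffer pH 7.5. Compounds pre-incubated 5 min at 37° C, then 200 nmol/L ZQ-16 for 5 min at room temperature; BRET² with coelenterazine 400A, ligand-promoted net BRET after background and vehicle subtraction.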
(Bioluminescence resonance energy transfer reports proximity on the nanometre scale.)

Sequence of GPR84 (Q9NQS5 whole entry): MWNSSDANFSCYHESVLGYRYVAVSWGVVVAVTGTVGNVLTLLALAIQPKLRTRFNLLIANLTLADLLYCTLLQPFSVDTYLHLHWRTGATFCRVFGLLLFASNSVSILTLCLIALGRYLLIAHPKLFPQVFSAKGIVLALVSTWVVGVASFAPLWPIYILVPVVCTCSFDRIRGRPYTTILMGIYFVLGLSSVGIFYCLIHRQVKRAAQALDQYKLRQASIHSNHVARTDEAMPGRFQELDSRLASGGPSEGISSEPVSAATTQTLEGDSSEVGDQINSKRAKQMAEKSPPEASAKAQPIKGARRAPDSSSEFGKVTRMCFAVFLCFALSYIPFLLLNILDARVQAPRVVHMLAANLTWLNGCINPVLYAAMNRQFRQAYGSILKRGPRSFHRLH

What is called inhibition is how much of the control response was suppressed. A lower inhibition goes with a response near the control. `Cc1cc(OCc2ncccn2)cc(=O)n1[C@H](C)c1ccc(C#CC2CCC2)cc1` [Compound I-314] returned an inhibition at 10 µM of more than 75%. One may read the IC50 as the concentration needed to halve the response being measured. As for `Cc1cc(OCc2cnccc2Cl)cc(=O)n1[C@H](C)c1ccc(C#CC2CC2)cc1` [Compound I-315], the IC50 was less than 5 µM and the inhibition at 2 µM was more than 75%.

Molecule `CNC(=O)c1ccc([C@@H](C)n2c(C)cc(OCc3ncccn3)cc2=O)cc1` [Compound I-316] displayed an inhibition at 10 µM of less than 25%. Take `CC[C@H](c1ccc(C#CC2CC2)cc1)n1c(C)cc(OCc2ncccn2)cc1=O` [Compound I-317]: the inhibition at 10 µM was more than 75%. On to `COc1cccnc1COc1cc(C)n([C@H](C)c2ccc(C#CC3CC3)cc2)c(=O)c1` [Compound I-318], for which the 50% inhibitory concentration (IC50) was less than 5 µM and the inhibition at 10 µM is more than 75%. `Cc1cc(OCc2ncccn2)nc(=O)n1C(C)c1ccc(C#CC2CC2)cc1` (centres unmarked) [Compound I-320] yielded an inhibition at 10 µM of 50 to 75%. Still for that read-out and setting: then `CC(c1ccc(C#CC2CC2)cc1)n1c(Cl)cc(OCc2ncccn2)cc1=O` (centres unmarked) [Compound I-321], with more than 75%; and `Cc1cc(OCc2ncccn2)cc(=O)n1[C@H](C)c1ccc(C2CC2)cc1` [Compound I-322], with less than 25%; and `Cc1cc(OCc2cnc(C3CC3)cn2)cc(=O)n1[C@H](C)c1ccc(C#CC2CC2)cc1` [Compound I-323], with more than 75%. In the case of `Cc1cc(OCc2ncccn2)cc(=O)n1C(CC(F)(F)F)c1ccc(C#CC2CC2)cc1` (centres unmarked) [Compound I-324], the IC50 is less than 5 µM and the inhibition at 10 µM is more than 75%. Take `Cc1cc(OCc2ncccn2)cc(=O)n1[C@H](C)c1ccc(C#CC2CC2)c(F)c1` [Compound I-325]: the IC50 was less than 5 µM and the inhibition at 10 µM was more than 75%. Take `Cc1cc(OCc2ncccn2)cc(=O)n1[C@@H](C)c1ccc(C#CC2CC2)c(F)c1` [Compound I-326]: the IC50 is 10 to 15 µM. In addition, where the note is “compound tested at 1 μM (concentration code A*)”, the inhibition at 1 µM was 25 to 50%. `Cc1cc(OCc2ncccc2F)cc(=O)n1C(C)c1ccc(C#CC2CC2)nc1` (centres unmarked) [Compound I-327] displayed an inhibition at 10 µM of 50 to 75%. `Cc1cc(OCc2ncccn2)cc(=O)n1[C@H](C)c1ccc(C#Cc2ccccc2)cc1` [Compound I-329] had an inhibition at 10 µM of less than 25%.

For the molecule `Cc1cc(OCc2ncccn2)cc(=O)n1C(C)c1cnc(C#CC2CC2)nc1` (centres unmarked) [Compound I-340], the inhibition at 10 µM was less than 25%. For `CCCOc1ccc(C(C)n2c(C)cc(OCc3ncccn3)cc2=O)cc1` (centres unmarked) [Compound I-343], the inhibition at 10 µM was less than 25%.

Take `Cc1cc(OCc2ncccn2)cc(=O)n1[C@H](C)c1ccc(-c2ccccc2)cc1` [Compound I-344]: the inhibition at 10 µM was less than 25%. The molecule `CCCCCCOc1ccc(C(C)n2c(C)cc(OCc3ncccn3)cc2=O)cc1` (centres unmarked) [Compound I-345] registered an inhibition at 10 µM of less than 25%.

`Cc1cc(OCc2ncccn2)cc(=O)n1[C@H](C)c1ccc(-c2cnc(C3CC3)nc2)cc1` [Compound I-347] came in with an inhibition at 10 µM of less than 25%.

Molecule `Cc1cc(OCc2nccn2C(C)C)cc(=O)n1[C@H](C)c1ccc(C#CC2CC2)cc1` [Compound I-348] displayed an inhibition at 10 µM of more than 75%. Molecule `Cc1cc(OCc2cncn2C)cc(=O)n1[C@H](C)c1ccc(C#CC2CC2)cc1` [Compound I-349] gave an inhibition at 2 µM of more than 75%. The molecule `Cc1cc(OCc2ccn(C)n2)cc(=O)n1[C@H](C)c1ccc(C#CC2CC2)cc1` [Compound I-350] displayed an inhibition at 10 µM of more than 75%. Consider `Cc1cc(OCc2ccnn2C)cc(=O)n1[C@H](C)c1ccc(C#CC2CC2)cc1` [Compound I-351], for which the IC50 is less than 5 µM and the inhibition at 10 µM was more than 75%.

`Cc1cc(OCc2cnn(C)c2)cc(=O)n1[C@H](C)c1ccc(C#CC2CC2)cc1` [Compound I-352] had an inhibition at 10 µM of more than 75%. In the case of `C#Cc1ccc(C(C)n2c(C)cc(OCc3ncccn3)cc2=O)cc1` (centres unmarked) [Compound I-353], the inhibition at 10 µM was less than 25%. Consider `Cc1cc(OCc2ncccn2)cc(=O)n1C(C)c1ccc2cc(C3CC3)ccc2c1` (centres unmarked) [Compound I-354], for which the inhibition at 2 µM was less than 25%. As to `Cc1cc(OCc2ncc[nH]2)cc(=O)n1[C@H](C)c1ccc(C#CC2CC2)cc1` [Compound I-355], the inhibition at 10 µM was 25 to 50%. `CCn1ccnc1COc1cc(C)n([C@H](C)c2ccc(C#CC3CC3)cc2)c(=O)c1` [Compound I-356]: the IC50 was less than 5 µM and the inhibition at 2 µM was more than 75%. For `Cc1cc(OCc2cn(C)nn2)cc(=O)n1[C@H](C)c1ccc(C#CC2CC2)cc1` [Compound I-357] the same measures were less than 5 µM and more than 75%. For `Cc1cc(OCc2cnn(C)n2)cc(=O)n1[C@H](C)c1ccc(C#CC2CC2)cc1` [Compound I-358], the inhibition at 10 µM was more than 75%. Turning to `Cc1cc(OCc2cnnn2C)cc(=O)n1[C@H](C)c1ccc(C#CC2CC2)cc1` [Compound I-359], the half-inhibitory concentration (IC50) was less than 5 µM and the inhibition at 10 µM was more than 75%. Consider `Cc1cc(NC(=O)c2ncccn2)cc(=O)n1[C@H](C)c1ccc(C#CC2CC2)cc1` [Compound I-360], for which the IC50 was less than 5 µM and the inhibition at 10 µM is more than 75%.

On to `Cc1cc(OCc2nccn2C)cc(=O)n1C(C)c1ccc(C#CC2CC2)c(F)c1` (centres unmarked) [Compound I-361], for which the IC50 was less than 5 µM and the inhibition at 2 µM was more than 75%. Consider `Cc1cc(OCc2ncccn2)cc(=O)n1C(C)c1cc(F)c(C#CC2CC2)c(F)c1` (centres unmarked) [Compound I-362], for which the inhibition at 10 µM is more than 75%. For the molecule `Cc1cc(OCc2cccnn2)cc(=O)n1C(C)c1ccc(C#CC2CC2)c(F)c1` (centres unmarked) [Compound I-363], the IC50 is less than 5 µM and the inhibition at 2 µM was more than 75%.

In the case of `Cc1cc(OCc2cncnc2)cc(=O)n1C(C)c1ccc(C#CC2CC2)c(F)c1` (centres unmarked) [Compound I-364], the IC50 was less than 5 µM and the inhibition at 10 µM is more than 75%. As for `Cc1cc(OCc2ncco2)cc(=O)n1C(C)c1ccc(C#CC2CC2)c(F)c1` (centres unmarked) [Compound I-365], the inhibition at 10 µM was more than 75%.

Consider `Cc1cc(OCc2ncccn2)cc(=O)n1C(C)c1ccc(C#CC2CCC2)c(F)c1` (centres unmarked) [Compound I-366], for which the inhibition at 10 µM was more than 75%. With `Cc1cc(OCc2ncccn2)cc(=O)n1C(C)C1CCN(c2ccc(C3CC3)cc2)CC1` (centres unmarked) [Compound I-368], the inhibition at 10 µM is less than 25%.

In turn, `Cc1cc(OCc2c(F)ccc[n+]2[O-])cc(=O)n1[C@H](C)c1ccc(C#CC2CC2)cc1` [Compound I-369] returned an inhibition at 10 µM of more than 75%. The same measure, in the same setting: then `Cc1cc(N(C)Cc2ncccn2)cc(=O)n1[C@H](C)c1ccc(C#CC2CC2)cc1` [Compound I-372], with more than 75%; and `Cc1cc([C@@H](C)n2c(C)cc(OCc3ncccn3)cc2=O)ccc1C#CC1CC1` [Compound I-373], with more than 75%. As to `Cc1cc(OC[C@@H]2COCCO2)cc(=O)n1[C@H](C)c1ccc(C#CC2CC2)cc1` [Compound I-396], the IC50 is less than 5 µM.
